According to the supplement of paper PMC10307832:

What was measured:
Test in all cases: relative viability (nuclei count vs DMSO), 5 days (fraction); higher = more cells survive
4EGI-1 + Linsitinib = compound: O=C(O)C(Cc1ccccc1[N+](=O)[O-])=NNc1nc(-c2ccc(Cl)c(Cl)c2)cs1 (mixture of isomers) [4EGI-1] + C[C@]1(O)C[C@@H](c2nc(-c3ccc4ccc(-c5ccccc5)nc4c3)c3c(N)nccn32)C1 [Linsitinib] (partner 1 µM)
How it was run: (§1)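 Medians of duplicate plates are given as relative viability. That measure is the nuclei count in treated wells divided by the count in vehicle wells. Counts were taken on 4× images of lung cancer cell lines in 1536-well plates, 5 days after pin-tool dosing the day after seeding with one drug alone or a fixed anchor-drug dose plus five library-drug doses (not always all listed) in √10 steps.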

XMD8-85 + OSI-027 = compound: CN1CCN(CC1)C2=CC(=C(C=C2)NC3=NC=C4C(=N3)N(C5=CC=CC=C5C(=O)N4C)C)OC [XMD8-85] + COc1cccc2cc(-c3nc([C@H]4CC[C@H](C(=O)O)CC4)n4ncnc(N)c34)[nH]c12 [OSI-027] (partner 0.5 µM)
How it was run: as §1

XMD8-85 + Vorinostat = compound: CN1CCN(CC1)C2=CC(=C(C=C2)NC3=NC=C4C(=N3)N(C5=CC=CC=C5C(=O)N4C)C)OC [XMD8-85] + O=C(CCCCCCC(=O)Nc1ccccc1)NO [Vorinostat] (partner 1 µM)
How it was run: as §1

4EGI-1 + Navitoclax = compound: O=C(O)C(Cc1ccccc1[N+](=O)[O-])=NNc1nc(-c2ccc(Cl)c(Cl)c2)cs1 (mixture of isomers) [4EGI-1] + CC1(C)CCC(c2ccc(Cl)cc2)=C(CN2CCN(c3ccc(C(=O)NS(=O)(=O)c4ccc(N[C@H](CCN5CCOCC5)CSc5ccccc5)c(S(=O)(=O)C(F)(F)F)c4)cc3)CC2)C1 [Navitoclax] (partner 0.5 µM)
How it was run: as §1

| Cell Line | relative viability (4EGI-1 + Linsitinib; first compound 0.5 µM) | relative viability (4EGI-1 + Linsitinib; first compound 1.581 µM) | relative viability (4EGI-1 + Linsitinib; first compound 5 µM) | relative viability (4EGI-1 + Linsitinib; first compound 15.81 µM) | relative viability (4EGI-1 + Linsitinib; first compound 50 µM) | relative viability (XMD8-85 + OSI-027; first compound 0.08 µM) | relative viability (XMD8-85 + OSI-027; first compound 0.253 µM) | relative viability (XMD8-85 + OSI-027; first compound 0.8 µM) | relative viability (XMD8-85 + OSI-027; first compound 2.53 µM) | relative viability (XMD8-85 + OSI-027; first compound 8 µM) | relative viability (XMD8-85 + Vorinostat; first compound 0.08 µM) | relative viability (XMD8-85 + Vorinostat; first compound 0.253 µM) | relative viability (XMD8-85 + Vorinostat; first compound 0.8 µM) | relative viability (XMD8-85 + Vorinostat; first compound 2.53 µM) | relative viability (XMD8-85 + Vorinostat; first compound 8 µM) | relative viability (4EGI-1 + Navitoclax; first compound 0.5 µM) | relative viability (4EGI-1 + Navitoclax; first compound 1.581 µM) | relative viability (4EGI-1 + Navitoclax; first compound 5 µM) | relative viability (4EGI-1 + Navitoclax; first compound 15.81 µM) | relative viability (4EGI-1 + Navitoclax; first compound 50 µM) |
| --- | --- | --- | --- | --- | --- | --- | --- | --- | --- | --- | --- | --- | --- | --- | --- | --- | --- | --- | --- | --- |
| NCI-H1915 | 1.12 | 0.779 | 1.06 | 1.07 | 0.861 | 0.622 | 0.648 | 0.651 | 0.672 | 0.507 | 0.556 | 0.546 | 0.485 | 0.5 | 0.476 | 0.825 | 0.606 | 0.797 | 0.754 | 0.596 |
| NCI-H1650 | – | – | – | – | – | 0.674 | 0.47 | 0.599 | 0.637 | 0.357 | 0.674 | 0.596 | 0.594 | 0.578 | 0.253 | 1.23 | – | 0.932 | 0.354 | 0.286 |
| HCC-44 | 0.708 | 0.361 | 0.681 | 0.585 | 0.406 | 0.51 | 0.55 | 0.46 | 0.456 | 0.3 | 1.11 | 1.07 | 1.07 | 1.16 | 1.04 | 0.957 | 0.596 | 0.949 | 0.958 | 0.35 |
| NCI-H2170 | – | – | – | – | – | 0.676 | 0.685 | 0.739 | – | 0.613 | 0.914 | 0.8 | 0.792 | 0.877 | 0.715 | 0.671 | 0.515 | 0.584 | 0.573 | 0.354 |
| NCI-H1975 | 0.902 | 0.941 | 1.01 | 1.01 | 0.698 | 0.53 | 0.678 | 0.807 | 0.762 | 0.445 | 0.708 | 0.691 | 0.706 | 0.693 | 0.473 | 1.2 | 1.05 | 0.984 | 1.08 | 1.18 |
| HCC-827 | 0.969 | 0.866 | 0.905 | – | 0.878 | 0.831 | 0.789 | 0.714 | 0.939 | 1 | 0.909 | 0.824 | 0.802 | 0.959 | 0.773 | 1.04 | 0.936 | 0.938 | – | 0.789 |
| NCI-H2347 | 1.08 | 0.805 | 0.96 | 0.944 | 0.87 | 0.447 | 0.382 | 0.421 | 0.578 | 0.454 | 0.603 | 0.564 | 0.59 | 0.533 | 0.504 | 0.972 | 0.586 | 0.776 | 0.861 | 0.721 |
| NCI-H1437 | 1.16 | 1 | 0.919 | 0.241 | 0.152 | 0.862 | 0.876 | 0.902 | 0.852 | 0.595 | 0.93 | 0.879 | 0.94 | 0.751 | 0.482 | 1.19 | 1 | 1.04 | 0.395 | 0.178 |
